The results in this text go back to patent publication US10030020B2, “Spirocycle compounds and methods of making and using same” (Abide Therapeutics, Inc., priority 2016, dated 2018).

Holding throughout (format): biochemical
The target in assay [1] is ABHD6 (Mus musculus (Mouse), UniProt Q8R2Y0). Kind of assay: In vitro competitive activity-based protein profiling (mouse brain membrane fraction or cell lysates), ABHD6 band. Conditions: mouse proteome; for inhibition at 1 µM: read-out: ABHD6 % Inh 1 μM (mouse); for IC50: competitive ABPP. As for the experimental part:
(§1) In Vitro Competitive Activity-Based Protein Profiling.
(§2) Proteomes (mouse brain membrane fraction or cell lysates) (50 μL, 1.0 mg/mL total protein concentration) were preincubated with varying concentrations of inhibitors at 37° C. After 30 min, FP—Rh (1.0 μL, 50 μM in DMSO) was added and the mixture was incubated for another 30 min at 37° C. Reactions were quenched with SDS loading buffer (50 μL-4×) and run on SDS-PAGE. Following gel imaging, serine hydrolase activity was determined by measuring fluorescent intensity of gel bands corresponding to MAGL, ABHD6 and FAAH using ImageJ 1.43u software.

In assay [2] the target is MAGL (Mus musculus (Mouse), UniProt O35678). The experiment in a line: In vitro competitive activity-based protein profiling (mouse brain membrane fraction or cell lysates), MAGL band. Conditions: mouse proteome; for inhibition at 1 µM: read-out: MAGL % Inh 1 μM (mouse); for IC50: competitive ABPP. As for the experimental part:
as §1
Proteomes (mouse brain membrane fraction or cell lysates) (50 μL, 1.0 mg/mL total protein concentration) were preincubated with varying concentrations of inhibitors at 37° C. After 30 min, FP—Rh (1.0 μL, 50 μM in DMSO) was added and the mixture was incubated for another 30 min at 37° C. Reactions were quenched with SDS loading buffer (50 μL-4×) and run on SDS-PAGE.

The target in assay [3] is FAAH (Mus musculus (Mouse), UniProt O08914). Kind of assay: In vitro competitive activity-based protein profiling (mouse brain membrane fraction or cell lysates), FAAH band. Conditions: mouse proteome; for inhibition at 1 µM: read-out: FAAH % Inh 1 μM (mouse); for IC50: competitive ABPP. As for the experimental part: as §1, §2
FAAH, sequence (O08914 whole entry): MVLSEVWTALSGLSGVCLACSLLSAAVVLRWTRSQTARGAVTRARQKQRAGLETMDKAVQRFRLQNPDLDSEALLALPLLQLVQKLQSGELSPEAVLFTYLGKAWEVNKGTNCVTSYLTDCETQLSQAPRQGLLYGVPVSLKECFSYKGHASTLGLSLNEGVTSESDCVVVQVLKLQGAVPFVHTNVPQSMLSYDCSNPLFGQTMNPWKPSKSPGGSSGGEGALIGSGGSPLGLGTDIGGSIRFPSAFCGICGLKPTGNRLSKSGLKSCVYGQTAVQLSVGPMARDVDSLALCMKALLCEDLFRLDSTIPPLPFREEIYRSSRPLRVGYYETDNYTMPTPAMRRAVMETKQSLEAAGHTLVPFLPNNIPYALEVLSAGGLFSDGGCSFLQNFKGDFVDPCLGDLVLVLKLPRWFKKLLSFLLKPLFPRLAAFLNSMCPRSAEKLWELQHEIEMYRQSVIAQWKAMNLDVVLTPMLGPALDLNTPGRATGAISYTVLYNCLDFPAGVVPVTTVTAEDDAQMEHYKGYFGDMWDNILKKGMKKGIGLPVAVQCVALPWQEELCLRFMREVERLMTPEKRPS

SMILES strings stand for the structures. Where only a bound is given, the exact number is not on record here.

MAGL, sequence (O35678 whole entry): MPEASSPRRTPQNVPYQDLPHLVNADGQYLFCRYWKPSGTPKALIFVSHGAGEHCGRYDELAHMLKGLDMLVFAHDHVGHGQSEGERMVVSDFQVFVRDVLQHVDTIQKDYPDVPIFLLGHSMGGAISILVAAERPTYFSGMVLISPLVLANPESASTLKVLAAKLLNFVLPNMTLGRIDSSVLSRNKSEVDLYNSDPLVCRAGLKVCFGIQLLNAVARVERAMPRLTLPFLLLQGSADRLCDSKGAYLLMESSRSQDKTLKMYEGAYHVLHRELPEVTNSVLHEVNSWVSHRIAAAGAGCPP
ABHD6, sequence (Q8R2Y0 whole entry): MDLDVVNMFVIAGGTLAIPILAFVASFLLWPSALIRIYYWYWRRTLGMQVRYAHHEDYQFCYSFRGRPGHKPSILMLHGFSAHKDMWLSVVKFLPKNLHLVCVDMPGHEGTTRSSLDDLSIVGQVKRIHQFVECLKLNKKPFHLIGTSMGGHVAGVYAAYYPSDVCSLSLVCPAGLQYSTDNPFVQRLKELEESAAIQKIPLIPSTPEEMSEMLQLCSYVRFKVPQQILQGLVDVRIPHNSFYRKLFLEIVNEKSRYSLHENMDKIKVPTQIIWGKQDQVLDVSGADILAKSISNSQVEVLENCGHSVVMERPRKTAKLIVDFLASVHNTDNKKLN

In general, IC50 refers to the concentration that inhibits the measured activity by half. On to `O=C(OC(C(F)(F)F)C(F)(F)F)N1CCC2(CCCN2Cc2cc(N3CCN(C4CC4)CC3)cc(C(F)(F)F)c2)CC1` [Example 41, 1,1,1,3,3,3-Hexafluoropropan-2-yl 1-(3-(4-cyclopropylpiperazin-1-yl)-5-(trifluoromethyl)benzyl)-1,8-diazaspiro[4.5]decane-8-carboxylate], for which the inhibition at 1 µM in assay [1] is < 25%; in assay [2], > 75%; in assay [3], < 25%. In addition, the half-maximal inhibitory concentration (IC50) was > 1000 nM in assay [1], < 100 nM in assay [2] and > 1000 nM in assay [3].
Take `COc1cc(Cl)ccc1CN1CC2(CCN(C(=O)OC(C(F)(F)F)C(F)(F)F)CC2)CC1(C)C` [Example 49, 1,1,1,3,3,3-Hexafluoropropan-2-yl 2-(4-chloro-2-methoxybenzyl)-3,3-dimethyl-2,8-diazaspiro[4.5]decane-8-carboxylate]: the inhibition at 1 µM in assay [1] was < 25%; in assay [2], > 75%; in assay [3], < 25%. The IC50 in assay [1] and in assay [3] was > 1000 nM each time.
For `CC1(C)CC2(CCN(C(=O)OC(C(F)(F)F)C(F)(F)F)CC2)CN1Cc1ccc(C(F)(F)F)cc1N1CC2COCC2C1` (centres unmarked) [Example 55, 1,1,1,3,3,3-Hexafluoropropan-2-yl 3,3-dimethyl-2-(2-(tetrahydro-1H-furo[3,4-c]pyrrol-5(3H)-yl)-4-(trifluoromethyl)benzyl)-2,8-diazaspiro[4.5]decane-8-carboxylate], the inhibition at 1 µM in assay [1] was < 25%; in assay [2] it was > 75%; in assay [3], < 25%. Moreover, the IC50 is > 1000 nM in assay [1], < 100 nM in assay [2] and > 1000 nM in assay [3].
Consider `CC1(C)CC2(CCN(C(=O)OC(C(F)(F)F)C(F)(F)F)CC2)CN1Cc1c(N2CCC3(CCOCC3)C2)cccc1C(F)(F)F` [Example 56, 1,1,1,3,3,3-Hexafluoropropan-2-yl 2-(2-(8-oxa-2-azaspiro[4.5]decan-2-yl)-6-(trifluoromethyl)benzyl)-3,3-dimethyl-2,8-diazaspiro[4.5]decane-8-carboxylate], for which the inhibition at 1 µM in assay [1] was < 25%; in assay [2] it was 25 to 75%; in assay [3] it was < 25%. Further, the IC50 was > 1000 nM in assay [1], 100 to 1000 nM in assay [2] and > 1000 nM in assay [3].
Consider `CC1(C)CC2(CCN(C(=O)OC(C(F)(F)F)C(F)(F)F)CC2)CN1Cc1c(N2CC3COCC3C2)cccc1C(F)(F)F` (centres unmarked) [Example 57, 1,1,1,3,3,3-Hexafluoropropan-2-yl 3,3-dimethyl-2-(2-(tetrahydro-1H-furo[3,4-c]pyrrol-5(3H)-yl)-6-(trifluoromethyl)benzyl)-2,8-diazaspiro[4.5]decane-8-carboxylate], for which the inhibition at 1 µM was < 25% in assay [1], > 75% in assay [2] and < 25% in assay [3]. For the same molecule, the IC50 in assay [1] and in assay [3] was > 1000 nM each time.
Turning to `O=C(OC(C(F)(F)F)C(F)(F)F)N1CCC2(CCN(Cc3cccc(N4CCCC4)c3)C2)CC1` [Example 58, 1,1,1,3,3,3-Hexafluoropropan-2-yl 2-(3-(pyrrolidin-1-yl)benzyl)-2,8-diazaspiro[4.5]decane-8-carboxylate], the inhibition at 1 µM was ≥ 75% in assay [1], > 75% in assay [2] and < 25% in assay [3]. In addition, the IC50 in assay [1] is 100 to 1000 nM; in assay [2], 100 to 1000 nM; in assay [3], > 1000 nM.
In the case of `O=C(OC(C(F)(F)F)C(F)(F)F)N1CCC2(CCN(Cc3c(N4CCCC4)cccc3C(F)(F)F)C2)CC1` [Example 59, 1,1,1,3,3,3-Hexafluoropropan-2-yl 2-(2-(pyrrolidin-1-yl)-6-(trifluoromethyl)benzyl)-2,8-diazaspiro[4.5]decane-8-carboxylate], the inhibition at 1 µM in assay [1] is < 25%; in assay [2] it was > 75%; in assay [3], < 25%. Also, the IC50 in assay [1] is > 1000 nM; in assay [2], 100 to 1000 nM; in assay [3] it was > 1000 nM.
`O=C(OC(C(F)(F)F)C(F)(F)F)N1CCC2(CCCN2Cc2ccccc2)CC1` [Example 63, 1,1,1,3,3,3-Hexafluoropropan-2-yl 1-benzyl-1,8-diazaspiro[4.5]decane-8-carboxylate]: the inhibition at 1 µM in assay [1] was < 25%; in assay [2], > 75%; in assay [3], < 25%. For the same molecule, the IC50 in assay [1] and in assay [3] was > 1000 nM throughout.
Take `O=C(OC(C(F)(F)F)C(F)(F)F)N1CCC2(CCCN2Cc2cccc(N3CCOCC3)c2)CC1` [Example 69, 1,1,1,3,3,3-Hexafluoropropan-2-yl 1-(3-morpholinobenzyl)-1,8-diazaspiro[4.5]decane-8-carboxylate]: the inhibition at 1 µM is < 25% in assay [1], > 75% in assay [2] and < 25% in assay [3]. In assay [1], the IC50 was > 1000 nM.
Take `CC(=O)N1CCCc2cccc(CN3CCC4(CCN(C(=O)OC(C(F)(F)F)C(F)(F)F)CC4)C3)c21` [Example 70, 1,1,1,3,3,3-Hexafluoropropan-2-yl 2-((1-acetyl-1,2,3,4-tetrahydroquinolin-8-yl)methyl)-2,8-diazaspiro[4.5]decane-8-carboxylate]: the inhibition at 1 µM in assay [1] was ≥ 75%; in assay [2] it was > 75%; in assay [3], < 25%. The molecule also displayed an IC50 in assay [1] of 100 to 1000 nM.
In the case of `Cc1c(CN2CCCC23CCN(C(=O)OC(C(F)(F)F)C(F)(F)F)CC3)cccc1N1CCOCC1` [Example 83, 1,1,1,3,3,3-Hexafluoropropan-2-yl 1-(2-methyl-3-morpholinobenzyl)-1,8-diazaspiro[4.5]decane-8-carboxylate], the inhibition at 1 µM in assay [1] is < 25%; in assay [2], > 75%; in assay [3], < 25%. The results for the IC50 in assay [1], in assay [2] and in assay [3] were > 1000 nM, < 100 nM and > 1000 nM, respectively.
Turning to `O=C(OC(C(F)(F)F)C(F)(F)F)N1CCC2(CCCN2Cc2ccc(C(F)(F)F)cc2N2CCS(=O)(=O)CC2)CC1` [Example 92, 1,1,1,3,3,3-Hexafluoropropan-2-yl 1-(2-(1,1-dioxidothiomorpholino)-4-(trifluoromethyl)benzyl)-1,8-diazaspiro[4.5]decane-8-carboxylate], the results for the inhibition at 1 µM in assay [1], in assay [2] and in assay [3] were ≥ 75%, > 75% and < 25%, respectively. Besides, the figures for the IC50 in assay [1], in assay [2] and in assay [3] were 100 to 1000 nM, < 100 nM and > 1000 nM, respectively.
In the case of `O=C(OC(C(F)(F)F)C(F)(F)F)N1CCC2(CCCN2Cc2ccc(C(F)(F)F)cc2N2CCCCCC2)CC1` [Example 95, 1,1,1,3,3,3-Hexafluoropropan-2-yl 1-(2-(azepan-1-yl)-4-(trifluoromethyl)benzyl)-1,8-diazaspiro[4.5]decane-8-carboxylate], the inhibition at 1 µM is < 25% in assay [1], 25 to 75% in assay [2] and < 25% in assay [3]. The IC50 in assay [1] was > 1000 nM; in assay [2] it was 100 to 1000 nM; in assay [3] it was > 1000 nM.
Turning to `CCN1CCN(c2cc(Cl)ccc2CN2CCCC23CCN(C(=O)OC(C(F)(F)F)C(F)(F)F)CC3)CC1` [Example 98, 1,1,1,3,3,3-Hexafluoropropan-2-yl 1-(4-chloro-2-(4-ethylpiperazin-1-yl)benzyl)-1,8-diazaspiro[4.5]decane-8-carboxylate], the results for the inhibition at 1 µM in assay [1], in assay [2] and in assay [3] were < 25%, > 75% and < 25%, respectively. The IC50 in assay [1] is > 1000 nM; in assay [2] it was 100 to 1000 nM; in assay [3], > 1000 nM.
In the case of `O=C(OC(C(F)(F)F)C(F)(F)F)N1CCC2(CCCN2Cc2ccc(Cl)cc2N2CCS(=O)(=O)CC2)CC1` [Example 103, 1,1,1,3,3,3-Hexafluoropropan-2-yl 1-(4-chloro-2-(1,1-dioxidothiomorpholino)benzyl)-1,8-diazaspiro[4.5]decane-8-carboxylate], the inhibition at 1 µM was ≥ 75% in assay [1], > 75% in assay [2] and < 25% in assay [3]. Moreover, the IC50 in assay [1] is 100 to 1000 nM; in assay [2], 100 to 1000 nM; in assay [3], > 1000 nM.
Consider `O=C(OC(C(F)(F)F)C(F)(F)F)N1CCC2(CCCN2Cc2ccc(Cl)cc2N2CCCCCC2)CC1` [Example 106, 1,1,1,3,3,3-Hexafluoropropan-2-yl 1-(2-(azepan-1-yl)-4-chlorobenzyl)-1,8-diazaspiro[4.5]decane-8-carboxylate], for which the inhibition at 1 µM in assay [1] was < 25%; in assay [2], > 75%; in assay [3] it was < 25%. Further, the IC50 in assay [1] was > 1000 nM; in assay [2] it was 100 to 1000 nM; in assay [3] it was > 1000 nM.
As to `O=C(OC(C(F)(F)F)C(F)(F)F)N1CCC2(CCCN2Cc2cccc(N3C4CCC3COC4)c2Cl)CC1` [Example 109, 1,1,1,3,3,3-Hexafluoropropan-2-yl 1-(3-(3-oxa-8-azabicyclo[3.2.1]octan-8-yl)-2-chlorobenzyl)-1,8-diazaspiro[4.5]decane-8-carboxylate], the inhibition at 1 µM is < 25% in assay [1], > 75% in assay [2] and < 25% in assay [3]. Also, the results for the IC50 in assay [1], in assay [2] and in assay [3] were > 1000 nM, < 100 nM and > 1000 nM, respectively.
